IC50 data for 14 molecules are collected here from patent US8575321B2, “Benzylbenzene derivatives and methods of use” (Theracos, Inc., priority 2007, dated 2013).

For one experiment, the target named is T1, human SGLT2 (Homo sapiens, UniProt P31639).
T1 construct: A full-length cDNA clone expressing human SGLT2
T1 sequence (P31639 1-672): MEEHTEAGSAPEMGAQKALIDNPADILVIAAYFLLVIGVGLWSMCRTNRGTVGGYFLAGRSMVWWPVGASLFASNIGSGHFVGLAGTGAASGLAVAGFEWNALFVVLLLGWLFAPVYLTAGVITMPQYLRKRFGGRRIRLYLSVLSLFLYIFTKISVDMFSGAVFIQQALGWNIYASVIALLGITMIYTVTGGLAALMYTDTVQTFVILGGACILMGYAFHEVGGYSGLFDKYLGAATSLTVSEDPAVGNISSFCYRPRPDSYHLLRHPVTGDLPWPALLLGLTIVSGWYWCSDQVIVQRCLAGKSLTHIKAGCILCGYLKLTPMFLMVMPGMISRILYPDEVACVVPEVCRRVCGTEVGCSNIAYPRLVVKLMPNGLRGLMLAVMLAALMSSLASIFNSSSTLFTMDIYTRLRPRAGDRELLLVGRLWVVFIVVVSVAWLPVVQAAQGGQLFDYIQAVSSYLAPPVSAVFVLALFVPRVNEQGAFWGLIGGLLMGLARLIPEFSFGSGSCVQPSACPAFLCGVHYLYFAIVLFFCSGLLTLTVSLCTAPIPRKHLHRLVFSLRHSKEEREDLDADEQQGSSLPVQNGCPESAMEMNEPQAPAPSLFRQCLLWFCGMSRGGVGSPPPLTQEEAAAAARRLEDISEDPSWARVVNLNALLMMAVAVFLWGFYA
Put plainly: Methyl-α-D-[U-14C]glucopyranoside uptake assay in HEK293.ETN cells stably expressing human SGLT2. Type of experiment: cell-based. The note with it: 1.5 h incubation. An excerpt: A full-length cDNA clone expressing human SGLT2 (GenScript Corporation) was subcloned into Hind III and Not I sites of pEAK15 expression vector. Clones harboring the cDNA inserts were identified by restriction analysis.
Plasmid containing human SGLT2 was linearized with Nsi I and purified by agarose gel electrophoresis. Using Lipofectamine 2000 Transfection Reagent (Invitrogen Corporation), DNA was transfected into HEK293.ETN cells and cultured in Dulbecco's Modified Eagle Medium (DMEM) containing 10% fetal bovine serum (FBS) at 37° C. under 5% CO2 for 24 h. Transfectants were selected in the same growth medium supplemented with puromycin (Invitrogen Corporation) for two weeks. Puromycin-resistant cells were recovered and seeded on a fresh 96-well plate (single cell per well) and cultured in the presence of puromycin until cells became confluent. Puromycin-resistant clones were evaluated for SGLT2 activity in the methyl-α-D-[U-^14C]glucopyranoside uptake assay described below.
(§1) Cells expressing SGLT1 or SGLT2 were seeded on 96-well ScintiPlate scintillating plates (PerkinElmer, Inc.) in DMEM containing 10% FBS (1×10^5 cells per well in 100 μl medium) incubated at 37° C. under 5% CO2 for 48 h prior to the assay. Cells were washed twice with 150 μl of either sodium buffer (137 mM NaCl, 5.4 mM KCl, 2.8 mM CaCl2, 1.2 mM MgCl2, 10 mM tris(hydroxymethyl)aminomethane/N^2-hydroxyethylpiperazine-N′-ethanesulfonic acid [Tris/Hepes], pH 7.2) or sodium-free buffer (137 mM N-methyl-glucamine, 5.4 mM KCl, 2.8 mM CaCl2, 1.2 mM MgCl2, 10 mM Tris/Hepes, pH 7.2). Test compound in 50 μl each of sodium or sodium-free buffer containing 40 μCi/ml methyl-α-D-[U-^14C]glucopyranoside (Amersham Biosciences/GE Healthcare), either with (symbols in parentheses) or without (symbols without parentheses) 25% human serum, was added per well of a 96-well plate and incubated at 37° C. with shaking for either 2 h (SGLT1 assay) or 1.5 h (SGLT2 assay). Cells were washed twice with 150 μl of wash buffer (137 mM N-methylglucamine, 10 mM Tris/Hepes, pH 7.2) and methyl-α-D-[U-^14C]glucopyranoside uptake was quantitated using a TopCount scintillation counter (PerkinElmer, Inc.). Sodium-dependent glucopyranoside uptake was measured by subtracting the values obtained with sodium-free buffer from those obtained using sodium buffer (average of triplicate determinations).

The target of a further experiment is T2, human SGLT1 (Homo sapiens, UniProt P13866).
T2 construct: Full-length human SGLT1 cDNA on pDream2.1 expression vector; host or cells: COS-7 cells (American Type Culture Collection)
T2 sequence (P13866 1-664): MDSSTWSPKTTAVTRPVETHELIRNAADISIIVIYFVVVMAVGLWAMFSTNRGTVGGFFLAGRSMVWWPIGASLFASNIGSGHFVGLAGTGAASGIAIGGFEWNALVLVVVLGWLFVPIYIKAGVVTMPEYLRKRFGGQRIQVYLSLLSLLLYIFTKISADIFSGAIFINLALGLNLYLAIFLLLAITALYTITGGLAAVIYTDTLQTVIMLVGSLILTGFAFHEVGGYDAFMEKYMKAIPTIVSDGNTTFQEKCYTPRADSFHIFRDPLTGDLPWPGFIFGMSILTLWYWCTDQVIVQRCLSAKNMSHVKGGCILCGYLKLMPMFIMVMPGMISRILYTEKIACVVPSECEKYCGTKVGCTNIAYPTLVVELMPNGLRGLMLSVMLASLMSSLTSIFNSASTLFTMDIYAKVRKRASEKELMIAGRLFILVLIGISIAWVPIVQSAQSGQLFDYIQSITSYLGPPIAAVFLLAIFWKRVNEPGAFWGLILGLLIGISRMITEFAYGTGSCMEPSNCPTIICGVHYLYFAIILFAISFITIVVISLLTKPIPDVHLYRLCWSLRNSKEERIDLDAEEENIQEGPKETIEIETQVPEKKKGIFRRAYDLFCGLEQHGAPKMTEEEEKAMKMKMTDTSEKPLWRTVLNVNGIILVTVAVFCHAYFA
Put plainly: Methyl-α-D-[U-14C]glucopyranoside uptake assay in COS-7 cells expressing human SGLT1. The note with it: 2 h incubation. Type of experiment: cell-based. The procedure: Full-length human SGLT1 cDNA on pDream2.1 expression vector was obtained from GenScript Corporation and propagated in Escherichia coli strain DH5α using Luria-Bertani (LB) medium containing ampicillin. Plasmid DNA was isolated using the QIAGEN Plasmid Midi Kit (QIAGEN Inc.). […] Transfected cells were stored in DMEM containing 10% dimethyl sulfoxide (DMSO) at −80° C.
as §1

[1] abbreviates: incubation with 25% human serum (symbols in parentheses).
The mark [2] stands for this setting: without human serum (symbols without parentheses).

In general, IC50 refers to the midpoint of a concentration-inhibition curve.

Regarding `OC[C@H]1O[C@@H](c2ccc(Cl)c(Cc3ccc(OCCOC4CCCC4)cc3)c2)[C@H](O)[C@@H](O)[C@@H]1O` [Compound AD, (2S,3R,4R,5S,6R)-2-(4-chloro-3-(4-(2-(cyclopentyloxy)ethoxy)benzyl)phenyl)-6-(hydroxymethyl)tetrahydro-2H-pyran-3,4,5-triol], the IC50 on human SGLT2 (setting [1]) was less than 1000 nM; at human SGLT1 (setting [1]), 1000 to 10000 nM.

On to `OC[C@H]1O[C@@H](c2ccc(Cl)c(Cc3ccc(OCC#CC4CC4)cc3)c2)[C@H](O)[C@@H](O)[C@@H]1O` [Compound AV, (2S,3R,4R,5S,6R)-2-(4-chloro-3-(4-(3-cyclopropylprop-2-ynyloxy)benzyl)phenyl)-6-(hydroxymethyl)tetrahydro-2H-pyran-3,4,5-triol], for which the IC50 on human SGLT2 (setting [1]) is less than 1000 nM; on human SGLT1 (setting [1]), more than 10000 nM.

Regarding `OC[C@H]1O[C@@H](c2ccc(Cl)c(Cc3ccc(CCOC(F)F)cc3)c2)[C@H](O)[C@@H](O)[C@@H]1O` [Compound BN, (2S,3R,4R,5S,6R)-2-(4-chloro-3-(4-(2-(difluoromethoxy)ethyl)benzyl)phenyl)-6-(hydroxymethyl)tetrahydro-2H-pyran-3,4,5-triol], the values for the IC50 at human SGLT2 (setting [1]) and at human SGLT1 (setting [1]) were less than 1000 nM and more than 10000 nM, respectively.

As for `OC[C@H]1O[C@@H](c2ccc(Cl)c(Cc3ccc(OCCOC4CC4)cc3)c2)[C@H](O)[C@@H](O)[C@@H]1O` [Compound BQ, (2S,3R,4R,5S,6R)-2-(4-chloro-3-(4-(2-cyclopropoxyethoxy)benzyl)phenyl)-6-(hydroxymethyl)tetrahydro-2H-pyran-3,4,5-triol], the IC50 on human SGLT2 (setting [1]) was less than 1000 nM; on human SGLT1 (setting [1]), 1000 to 10000 nM.

With `OC[C@H]1O[C@@H](c2ccc(Cl)c(Cc3ccc(OCCOCC(F)(F)F)cc3)c2)[C@H](O)[C@@H](O)[C@@H]1O` [Compound BT, (2S,3R,4R,5S,6R)-2-(4-chloro-3-(4-(2-(2,2,2-trifluoroethoxy)ethoxy)benzyl)phenyl)-6-(hydroxymethyl)tetrahydro-2H-pyran-3,4,5-triol], the half-maximal inhibitory concentration (IC50) on human SGLT2 (setting [1]) is less than 1000 nM; at human SGLT1 (setting [1]), 1000 to 10000 nM.

As to `OC[C@H]1O[C@@H](c2ccc(Cl)c(Cc3ccc(OCCOC4C=CCCC4)cc3)c2)[C@H](O)[C@@H](O)[C@@H]1O` (stereo partly drawn) [Compound BW, (2S,3R,4R,5S,6R)-2-(4-chloro-3-(4-(2-(cyclohex-2-enyloxy)ethoxy)benzyl)phenyl)-6-(hydroxymethyl)tetrahydro-2H-pyran-3,4,5-triol], the IC50 at human SGLT2 (setting [1]) is less than 1000 nM; at human SGLT1 (setting [1]), more than 10000 nM.

On to `OC[C@H]1O[C@@H](c2ccc(Cl)c(Cc3ccc(OC/C=C/C4CC4)cc3)c2)[C@H](O)[C@@H](O)[C@@H]1O` [Compound BZ, (2S,3R,4R,5S,6R)-2-(4-chloro-3-(4-((E)-3-cyclopropylallyloxy)benzyl)phenyl)-6-(hydroxymethyl)tetrahydro-2H-pyran-3,4,5-triol], for which the IC50 on human SGLT2 (setting [1]) is less than 1000 nM; at human SGLT1 (setting [1]) it was more than 10000 nM.

As to `OC[C@H]1O[C@@H](c2ccc(Cl)c(Cc3ccc(OCCOCCF)cc3)c2)[C@H](O)[C@@H](O)[C@@H]1O` [Compound CC, (2S,3R,4R,5S,6R)-2-(4-chloro-3-(4-(2-(2-fluoroethoxy)ethoxy)benzyl)phenyl)-6-(hydroxymethyl)tetrahydro-2H-pyran-3,4,5-triol], the concentration for half-maximal inhibition (IC50) at human SGLT2 (setting [2]) was less than 1000 nM; on human SGLT1 (setting [2]), 1000 to 10000 nM.

Turning to `OC[C@H]1O[C@@H](c2ccc(Cl)c(Cc3ccc(OCCOCC(F)F)cc3)c2)[C@H](O)[C@@H](O)[C@@H]1O` [Compound CF, (2S,3R,4R,5S,6R)-2-(4-chloro-3-(4-(2-(2,2-difluoroethoxy)ethoxy)benzyl)phenyl)-6-(hydroxymethyl)tetrahydro-2H-pyran-3,4,5-triol], the IC50 is less than 1000 nM on human SGLT2 (setting [2]) and 1000 to 10000 nM on human SGLT1 (setting [2]).

As for `OC[C@H]1O[C@@H](c2ccc(Cl)c(Cc3ccc(OCCOCCN4CCCC4)cc3)c2)[C@H](O)[C@@H](O)[C@@H]1O` [Compound CH, (2S,3R,4R,5S,6R)-2-(4-chloro-3-(4-(2-(2-(pyrrolidin-1-yl)ethoxy)ethoxy)benzyl)phenyl)-6-(hydroxymethyl)tetrahydro-2H-pyran-3,4,5-triol], the IC50 at human SGLT2 (setting [1]) was less than 1000 nM; at human SGLT1 (setting [1]), 1000 to 10000 nM.

`OC[C@H]1O[C@@H](c2ccc(Cl)c(Cc3ccc(OCCO[C@H]4CCOC4)cc3)c2)[C@H](O)[C@@H](O)[C@@H]1O` [Compound CK, (2S,3R,4R,5S,6R)-2-(4-chloro-3-(4-(2-((S)-tetrahydrofuran-3-yloxy)ethoxy)benzyl)phenyl)-6-(hydroxymethyl)tetrahydro-2H-pyran-3,4,5-triol]: the IC50 was less than 1000 nM at human SGLT2 (setting [1]) and 1000 to 10000 nM on human SGLT1 (setting [1]).

In the case of `OC[C@H]1O[C@@H](c2ccc(Cl)c(Cc3ccc(OCCOC4CCC4)cc3)c2)[C@H](O)[C@@H](O)[C@@H]1O` [Compound CM, (2S,3R,4R,5S,6R)-2-(4-chloro-3-(4-(2-cyclobutoxyethoxy)benzyl)phenyl)-6-(hydroxymethyl)tetrahydro-2H-pyran-3,4,5-triol], the IC50 was less than 1000 nM on human SGLT2 (setting [1]) and more than 10000 nM at human SGLT1 (setting [1]).

Turning to `CC1(OCCOc2ccc(Cc3cc([C@@H]4O[C@H](CO)[C@@H](O)[C@H](O)[C@H]4O)ccc3Cl)cc2)CC1` [Compound CP, (2S,3R,4R,5S,6R)-2-(4-chloro-3-(4-(2-(1-methylcyclopropoxy)ethoxy)benzyl)phenyl)-6-(hydroxymethyl)tetrahydro-2H-pyran-3,4,5-triol], the concentration for half-maximal inhibition (IC50) on human SGLT2 (setting [1]) is less than 1000 nM; on human SGLT1 (setting [1]), more than 10000 nM.

As to `OC[C@H]1O[C@@H](c2ccc(Cl)c(Cc3ccc(CCOC4CC4)cc3)c2)[C@H](O)[C@@H](O)[C@@H]1O` [Compound CT, (2S,3R,4R,5S,6R)-2-(4-chloro-3-(4-(2-cyclopropoxyethyl)benzyl)phenyl)-6-(hydroxymethyl)tetrahydro-2H-pyran-3,4,5-triol], the half-maximal inhibitory concentration (IC50) on human SGLT2 (setting [1]) is less than 1000 nM; at human SGLT1 (setting [1]), more than 10000 nM.
